# Reference: patent US20150374767A1, “Treatment of Cancer” (priority 2013, published 2015)
# “Also recorded” adds a separate entry of the source. Counter-ions that a name gives are not always drawn.
# Assays:
# H1666 = settings: H1666, wild-type EGFR; read-out: IC50, inhibiting survival of lung cancer cell line; cited from earlier work
# NCI-H1975 = settings: NCI-H1975, L858R/T790M EGFR; read-out: IC50, inhibiting survival of lung cancer cell line; cited from earlier work
# H3255 = settings: H3255, Gefitinib sensitive L858R; cited from earlier work
# HSV1716gfp = assay: GFP expression during infection with HSV1716gfp (drug toxicity to virus); format: cell-based, herpes simplex virus
# UVW = format: cell-based, human
# U87 = format: cell-based, human
# Virttu cell panel = assay: combination with HSV1716, DCP cell death, Chou-Talalay analysis, cell panel; format: cell-based, human
# CP70 = format: cell-based, human
# One58 = format: cell-based, human
# HepG2-luc = format: cell-based, human
# SKOV3 = format: cell-based, human
# SPC111 = assay: combination with HSV1716, Chou-Talalay, SPC111; format: cell-based, human; settings: SPC111, HSV1716 moi 0.5 and 0.05, 72 hours
# Virttu cell line panel = assay: cells; format: cell-based; settings: Homo sapiens; most/all cell lines of panel, 72 hrs; read-out: IC50 (DCP leakage), range over cell lines
# PARP = PARP cleavage by Western blotting; format: cell-based, human; settings: in combination with HSV1716
# VEGFR2 = settings: cited from earlier work; for IC50: read-out: IC50 for VEGFR2 (KDR)
# c-Met = c-Met (Homo sapiens, UniProt P08581); settings: cited from earlier work
# HuH7 = format: cell-based, human
# Ovcar3 = format: cell-based, human
# PDGFRβ = PDGFRβ (Homo sapiens, UniProt P09619); settings: cited from earlier work
# [1] = test system: human gastric carcinoma xenograft; assay: patient-derived human gastric carcinoma xenograft model; design: species or system mice; settings: mouse, in vivo
# Description: HSV1716 (Seprehvir) was used in a personalised oncology study. Patient-derived tumour samples were obtained from a gastric carcinoma. There have been no previous in vitro or in vivo pre-clinical studies with Seprehvir in human gastric carcinoma cells/xenografts. Seprehvir was stored at −70° C., and multiple vials were provided to avoid repeated freeze/thawing.
# Two groups of 3 mice with gastric carcinoma implants were treated with 2×10^6 pfu Seprehvir by either intratumoural (IT) or intravenous (IV) routes of administration. Control mice (n=3) received no treatment and in these mice the implants grew rapidly and all were sacrificed within 18 days (FIG. 61). For IV injection, Seprehvir was administered on days 0, 3, 10 and 18, at which point the tumors were too large and the mice were sacrificed.
# For IT injection of Seprehvir, 2×10^6 pfu was administered on days 0, 3, 10, 18, 21 and 25.
# . Control mice (n=3) received no treatment and in these mice the implants grew rapidly and all were sacrificed within 18 days (FIG. 62). […]. A follow-on study with HSV1716 administering more frequent by IV dosing at the higher concentration of 10^7 pfu was performed using the same human gastric carcinoma xenograft model. […].
# Groups of 3 mice received IV injection of HSV1716 at 1×10^7 pfu on days 1, 3, 5, 8, 10, 12, 15, 17 and 19. […]
# Hep3B = format: cell-based, human
# B-Raf = settings: read-out: IC50 for B-Raf; cited from earlier work
# Chain of PDGFRβ (P09619 33-1106): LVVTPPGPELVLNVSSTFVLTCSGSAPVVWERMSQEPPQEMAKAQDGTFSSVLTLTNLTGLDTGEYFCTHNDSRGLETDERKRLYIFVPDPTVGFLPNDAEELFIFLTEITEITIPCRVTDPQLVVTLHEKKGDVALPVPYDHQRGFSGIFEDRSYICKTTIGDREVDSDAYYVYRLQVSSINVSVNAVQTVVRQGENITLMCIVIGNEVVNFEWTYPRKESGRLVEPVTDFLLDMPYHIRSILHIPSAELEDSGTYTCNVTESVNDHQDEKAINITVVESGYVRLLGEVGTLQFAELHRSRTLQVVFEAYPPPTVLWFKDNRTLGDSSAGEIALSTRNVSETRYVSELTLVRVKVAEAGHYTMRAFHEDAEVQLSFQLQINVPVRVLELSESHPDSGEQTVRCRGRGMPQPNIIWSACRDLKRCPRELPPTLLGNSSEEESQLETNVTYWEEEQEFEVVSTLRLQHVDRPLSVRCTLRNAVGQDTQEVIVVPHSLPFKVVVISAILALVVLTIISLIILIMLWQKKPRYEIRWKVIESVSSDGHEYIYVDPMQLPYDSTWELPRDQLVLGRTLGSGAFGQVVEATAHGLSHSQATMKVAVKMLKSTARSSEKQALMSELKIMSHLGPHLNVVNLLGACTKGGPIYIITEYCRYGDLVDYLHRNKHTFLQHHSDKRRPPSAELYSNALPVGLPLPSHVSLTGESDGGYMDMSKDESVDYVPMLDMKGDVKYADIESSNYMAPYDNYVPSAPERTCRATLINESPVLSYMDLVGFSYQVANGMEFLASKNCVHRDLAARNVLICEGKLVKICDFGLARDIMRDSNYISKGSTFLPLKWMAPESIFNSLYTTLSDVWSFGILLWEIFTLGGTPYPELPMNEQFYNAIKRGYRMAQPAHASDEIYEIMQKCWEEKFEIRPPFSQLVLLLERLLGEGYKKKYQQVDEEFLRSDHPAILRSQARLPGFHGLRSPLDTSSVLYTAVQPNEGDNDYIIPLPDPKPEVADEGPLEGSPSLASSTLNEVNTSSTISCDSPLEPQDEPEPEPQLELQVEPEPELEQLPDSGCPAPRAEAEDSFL
# Chain of c-Met (P08581 25-1390): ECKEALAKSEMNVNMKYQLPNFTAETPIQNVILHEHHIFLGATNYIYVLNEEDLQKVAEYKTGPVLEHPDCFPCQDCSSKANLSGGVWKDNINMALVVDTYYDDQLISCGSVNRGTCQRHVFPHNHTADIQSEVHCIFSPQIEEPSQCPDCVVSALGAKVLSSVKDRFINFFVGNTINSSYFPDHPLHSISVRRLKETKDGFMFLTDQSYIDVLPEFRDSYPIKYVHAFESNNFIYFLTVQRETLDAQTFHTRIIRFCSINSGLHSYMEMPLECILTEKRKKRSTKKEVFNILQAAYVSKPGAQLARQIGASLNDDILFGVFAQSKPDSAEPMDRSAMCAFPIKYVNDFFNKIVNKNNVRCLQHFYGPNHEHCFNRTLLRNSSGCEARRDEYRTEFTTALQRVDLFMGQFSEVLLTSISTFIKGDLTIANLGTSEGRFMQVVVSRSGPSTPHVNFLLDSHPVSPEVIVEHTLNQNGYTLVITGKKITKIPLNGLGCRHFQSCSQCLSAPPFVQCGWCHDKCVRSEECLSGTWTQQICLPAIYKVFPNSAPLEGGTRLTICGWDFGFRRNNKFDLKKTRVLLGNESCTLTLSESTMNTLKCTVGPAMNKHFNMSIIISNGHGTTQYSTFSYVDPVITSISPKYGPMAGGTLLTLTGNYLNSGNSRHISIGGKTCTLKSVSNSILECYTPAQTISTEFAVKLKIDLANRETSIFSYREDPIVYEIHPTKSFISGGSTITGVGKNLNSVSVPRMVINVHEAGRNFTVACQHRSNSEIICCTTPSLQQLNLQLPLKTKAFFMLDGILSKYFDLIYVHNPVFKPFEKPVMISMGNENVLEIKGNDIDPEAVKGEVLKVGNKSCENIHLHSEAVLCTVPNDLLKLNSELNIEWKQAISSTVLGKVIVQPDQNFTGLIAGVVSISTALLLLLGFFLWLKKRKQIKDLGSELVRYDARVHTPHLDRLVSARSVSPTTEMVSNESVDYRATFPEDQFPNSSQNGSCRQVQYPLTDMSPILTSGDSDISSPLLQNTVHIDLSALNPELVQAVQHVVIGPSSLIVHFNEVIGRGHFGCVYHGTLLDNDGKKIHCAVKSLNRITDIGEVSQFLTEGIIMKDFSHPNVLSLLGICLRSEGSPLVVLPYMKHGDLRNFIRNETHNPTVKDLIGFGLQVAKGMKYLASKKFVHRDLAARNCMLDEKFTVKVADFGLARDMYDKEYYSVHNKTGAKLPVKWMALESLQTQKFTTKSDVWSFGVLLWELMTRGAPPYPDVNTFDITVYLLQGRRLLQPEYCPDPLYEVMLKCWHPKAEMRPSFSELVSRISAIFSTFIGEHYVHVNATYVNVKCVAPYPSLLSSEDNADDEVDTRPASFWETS
compound,measurement,setting,value
"CN(C)CC=CC(=O)Nc1cc2c(Nc3ccc(F)c(Cl)c3)ncnc2cc1O[C@H]1CCOC1 [Afantinib, N-[4-[(3-Chloro-4-fluorophenyl)amino]-7-[[(3S)-tetrahydro-3-furanyl]oxy]-6-quinazolinyl]-4(dimethylamino)-2-butenamide]",IC50,H1666,< 100 nM
same,IC50,NCI-H1975,< 100 nM
same,"IC50, inhibiting survival of lung cancer cell line",H3255,subnanomolar
"CCN(CC)CCNC(=O)c1c(C)[nH]c(/C=C2\C(=O)Nc3ccc(F)cc32)c1C [Sunitinib, N-(2-diethylaminoethyl)-5-[(Z)-(5-fluoro-2-oxo-1H-indol-3-ylidene)methyl]-2,4-dimethyl-1H-pyrrole-3-carboxamide]",effect on GFP expression during HSV1716gfp infection,"HSV1716gfp; CP70, moi 0.05, 72 hrs",more pronounced
same,effect on GFP expression during HSV1716gfp infection,"HSV1716gfp; SPC111, moi 0.05, 72 hrs",more pronounced
same,effect on GFP expression during HSV1716gfp infection,"HSV1716gfp; all 9 cell lines tested, moi 0.5 and moi 0.05, 72 hours",increased GFP expression
same,synergy/antagonism with HSV1716 on cell death (Chou-Talalay),UVW,antagonistic
same,synergy/antagonism with HSV1716 on cell death (Chou-Talalay),U87,strongly synergistic
same,number of cell lines in which moi 0.05 generated synergy,Virttu cell panel,9 of the 10
same,number of cell lines in which moi 0.5 generated synergy,Virttu cell panel,7 of the 10
same,number of cell lines tested with clear synergy signals / synergism with HSV1716,Virttu cell panel,9 of the 10
same,synergy/antagonism with HSV1716 on cell death (Chou-Talalay),CP70,strongly synergistic
same,synergy/antagonism with HSV1716 on cell death (Chou-Talalay),One58,strongly synergistic
same,synergy/antagonism with HSV1716 on cell death (Chou-Talalay),HepG2-luc,strongly synergistic
same,synergy/antagonism with HSV1716 on cell death (Chou-Talalay),SKOV3,some evidence of synergy
same,synergy/antagonism with HSV1716 on cell death (Chou-Talalay),SPC111,strongly synergistic
same,IC50,Virttu cell line panel,0.5 to 15 µM
same,PARP cleavage (executioner phase of apoptosis),PARP; Hep3B cells,PARP cleavage demonstrated by Western blotting
same,PARP cleavage (executioner phase of apoptosis),PARP; Ovcar3 cells,PARP cleavage demonstrated by Western blotting
"N-(2-fluoro-4-((2-(4-(4-methylpiperazin-1-yl)piperidine-1-carboxamido)pyridin-4-yl)oxy)phenyl)-N-(4-fluorophenyl)cyclopropane-1,1-dicarboxamide [Golvatinib]",IC50,VEGFR2,16 nM
same,IC50,c-Met,14 nM
"C[C@@H](Oc1cc(-c2cnn(C3CCNCC3)c2)cnc1N)c1c(Cl)ccc(F)c1Cl [Crizotinib, 3-[(1R)-1-(2,6-dichloro-3-fluorophenyl)ethoxy]-5-(1-piperidin-4-ylpyrazol-4-yl)pyridin-2-amine]",effect on GFP expression during HSV1716gfp infection,"HSV1716gfp; CP70, moi 0.5 and 0.05, 72 hrs",increased GFP expression
same,effect on GFP expression during HSV1716gfp infection,"HSV1716gfp; Hep3B, moi 0.5 and 0.05, 72 hrs",decreased GFP expression
same,effect on GFP expression during HSV1716gfp infection,"HSV1716gfp; HepG2-luc, both moi (0.5 and 0.05), 72 hrs",little effect on GFP expression
same,effect on GFP expression during HSV1716gfp infection,"HSV1716gfp; HuH7, moi 0.5 and 0.05, 72 hrs",decreased GFP expression
same,effect on GFP expression during HSV1716gfp infection,"HSV1716gfp; One58, moi 0.5 and 0.05, 72 hrs",increased GFP expression
same,effect on GFP expression during HSV1716gfp infection,"HSV1716gfp; Ovcar3, moi 0.5 and 0.05, all drug doses, 72 hrs",little effect on GFP expression
same,effect on GFP expression during HSV1716gfp infection,"HSV1716gfp; SPC-111, moi 0.5 and 0.05, all drug doses, 72 hrs",little effect on GFP expression
same,effect on GFP expression during HSV1716gfp infection,"HSV1716gfp; Skov3, moi 0.5 and 0.05, all drug doses, 72 hrs",little effect on GFP expression
same,effect on GFP expression during HSV1716gfp infection,"HSV1716gfp; U87, moi 0.5 and 0.05, 72 hrs",increased GFP expression
same,effect on GFP expression during HSV1716gfp infection,"HSV1716gfp; UVW, moi 0.5 and 0.05, 72 hrs",decreased GFP expression
same,synergy/antagonism with HSV1716 on cell death (Chou-Talalay),UVW,strongly synergistic
same,synergy/antagonism with HSV1716 on cell death (Chou-Talalay),U87,strongly synergistic
same,number of cell lines in which moi 0.05 generated synergy,Virttu cell panel,8 of the 9
same,number of cell lines in which moi 0.5 generated synergy,Virttu cell panel,3 of the 9
same,synergy/antagonism with HSV1716 on cell death (Chou-Talalay),CP70,strongly synergistic
same,synergy/antagonism with HSV1716 on cell death (Chou-Talalay),One58,antagonistic
same,synergy/antagonism with HSV1716 on cell death (Chou-Talalay),HepG2-luc,synergistic
same,synergy/antagonism with HSV1716 on cell death (Chou-Talalay),SKOV3,some limited synergy
same,synergy/antagonism with HSV1716 on cell death (Chou-Talalay),HuH7,some limited synergy
same,synergy/antagonism with HSV1716 on cell death (Chou-Talalay),SPC111,some limited synergy
same,IC50,Virttu cell line panel,2 to 30 µM
same,synergy/antagonism with HSV1716 on cell death (Chou-Talalay),Ovcar3,some limited synergy
"N#CC1(c2ccc(NC(=O)c3cccnc3NCc3ccncc3)cc2)CCCC1 [Apatinib, N-[4-(1-cyanocyclopentyl)phenyl-2-(4-picolyl)amino-3-Nicotinamide methanesulphonate]",IC50,VEGFR2,2.34 nM
"CCCNC(=O)Nc1ccc(Oc2ncnc3cc(OC)c(OC)cc23)cc1Cl [KRN 633, N-[2-Chloro-4-[(6,7-dimethoxy-4-quinazolinyl)oxy]phenyl]-N′-propylurea]",IC50,PDGFRβ,9.85 µM
same,IC50,VEGFR2,160 nM
"COc1cc2c(Oc3ccc4[nH]c(C)cc4c3F)ncnc2cc1OCCCN1CCCC1 [Cediranib, 4-[(4-fluoro-2-methyl-1H-indol-5-yl)oxy]-6-methoxy-7-[3-(pyrrolidin-1-yl)propoxy]quinazoline]",IC50,VEGFR2,0.5 nM
"Cc1[nH]c(/C=C2\C(=O)Nc3ccccc32)c(C)c1CCC(=O)O [TSU-68, (Z)-3-(2,4-dimethyl-5-((2-oxoindolin-3-ylidene)methyl)-1H-pyrrol-3-yl)propanoic acid]",Ki,PDGFRβ; read-out: Ki for PDGFRβ,8 nM
same,Ki,VEGFR2; read-out: Ki for VEGFR2 (Flk-1/KDR),2100 nM
"CN(C[C@@H]1COCCO1)S(=O)(=O)Nc1ccc2ccc3ncc(-c4cnn(C)c4)cc3c(=O)c2c1 [MK-2461, N-((2R)-1,4-Dioxan-2-ylmethyl)-N-methyl-N′-[3-(1-methyl-1H-pyrazol-4-yl)-5-oxo-5H-benzo[4,5]cyclohepta[1,2-b]pyridin-7-yl]sulfamide]",IC50,PDGFRβ,0.022 µM
same,IC50,c-Met,2.5 nM
"CNC(=O)c1cc(Oc2ccc(NC(=O)Nc3ccc(Cl)c(C(F)(F)F)c3)c(F)c2)ccn1.O [Regorafenib, 4-[4-({[4-Chloro-3-(trifluoromethyl)phenyl]carbamoyl}amino)-3-fluorophenoxy]-N-methylpyridine-2-carboxamide hydrate]",tumour growth inhibition,[1],highly effective at tumour growth inhibition
"Nc1nccc(Oc2ccc(NC(=O)c3c[nH]cc(-c4ccc(F)cc4)c3=O)cc2F)c1Cl [BMS 794833, N-(4-((2-amino-3-chloropyridin-4-yl)oxy)-3-fluorophenyl)-5-(4-fluorophenyl)-4-oxo-1,4-dihydropyridine-3-carboxamide]",IC50,VEGFR2,15 nM
"COc1cc2ncnc(Nc3ccc(F)c(Cl)c3)c2cc1OCCCN1CCOCC1 [Gefitinib, N-(3-chloro-4-fluoro-phenyl)-7-methoxy-6-(3-morpholin-4-ylpropoxy)quinazolin-4-amine]",overall synergy/antagonism with HSV1716 on cell death,Virttu cell panel,antagonistic with HSV1716 in all cell lines; also recorded: mostly antagonistic
same,synergy/antagonism with HSV1716 on cell death (Chou-Talalay),Hep3B,Synergy
"CCN1CCN(Cc2ccc(-c3cc4c(N[C@H](C)c5ccccc5)ncnc4[nH]3)cc2)CC1 [AEE788, 6-[4-[(4-Ethylpiperazin-1-yl)methyl]phenyl]-N-[(1R)-1-phenylethyl]-7H-pyrrolo[2,3-d]pyrimidin-4-amine]",IC50,VEGFR2,77 nM
"Cc1cc(F)c(Nc2ncnc3cc(OCc4ccccc4)ccc23)cc1O [ZM 323881 HCl, 5-((7-Benzyloxyquinazolin-4-yl)amino)-4-fluoro-2-methylphenol hydrochloride]",IC50,VEGFR2,< 2 nM
